Molecules are shown by their SMILES. Where a name gives a salt, the structure may show the parent alone.

In this experiment the target is T1, recombinant human renin (Homo sapiens, UniProt P00797).
T1 sequence (P00797 67-406): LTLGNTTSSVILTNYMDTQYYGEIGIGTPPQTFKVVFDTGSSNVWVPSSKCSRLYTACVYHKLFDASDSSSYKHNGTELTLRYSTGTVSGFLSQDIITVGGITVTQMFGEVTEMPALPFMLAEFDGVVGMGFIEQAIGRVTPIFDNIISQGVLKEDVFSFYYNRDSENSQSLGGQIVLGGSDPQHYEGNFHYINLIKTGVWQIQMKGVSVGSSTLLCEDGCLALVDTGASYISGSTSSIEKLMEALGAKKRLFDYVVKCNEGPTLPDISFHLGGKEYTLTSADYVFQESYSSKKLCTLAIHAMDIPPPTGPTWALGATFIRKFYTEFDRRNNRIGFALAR
The experiment is described as follows: Primary renin inhibition assay: IC50 in buffer, 384 well MTP (AngI measured by EIA). The following applies: human tetradecapeptide (1-14) substrate, incubated at 37° C. for 3 h, AngI quantified by EIA. In kind it is biochemical. Here is the method: 1. Enzyme Immuno Assay (EIA) to Estimate AngI Accumulation and Renin Inhibition
1.1 Preparation of AngI-BSA Conjugate
1.3 mg (1 μmol) of AngI [1-10 (Bachem, H-1680)] and 17 mg (0.26 μmol) of BSA (Fluka, 05475) were dissolved in 4 mL of 0.1M phosphate buffer, pH 7.4, after which 2 mL of a 1:100 dilution of glutaraldehyde in H2O (Sigma G-5882) was added dropwise. The mixture was incubated overnight at 4° C., then dialyzed against 2 liters of 0.9% NaCl, twice for 4 h at rt, followed by dialysis against 2 liters of PBS 1× overnight at rt. The solution was then filtered with a Syringe filter, 0.45 μm (Nalgene, Cat. No. 194-2545). The conjugate can be stored in polypropylene tubes in 0.05% sodium azide at 4° C. for at least 12 months.
1.2 Preparation of BSA-AngI Coated MTP
Microtiter plates (MPT384, MaxiSorp™, Nunc) were incubated overnight at 4° C. with 80 μl of AngI (1-10)/BSA conjugate, diluted 1:100'000 in PBS 1× in a teflon beaker (exact dilution dependent on batch of conjugate), emptied, filled with 90 μl of blocking solution [0.5% BSA (Sigma A-2153) in PBS 1×, 0.02% NaN3], and incubated for at least 2 h at rt, or overnight at 4° C. 96 well MTP (MaxiSorp™, Nunc) were coated with 200 μl conjugate and blocked with 250 μl blocking solution as above, except that the blocking solution contained 3% BSA. The plates can be stored in blocking solution at 4° C. for 1 month.
1.3 AngI-EIA in 384 Well MTP
The AngI (1-10)/BSA coated MTP were washed 3 times with wash buffer (PBS 1×, 0.01% Tween 20) and filled with 75 μl of primary antibody solution (anti-AngI antiserum, pre-diluted 1:10 in horse serum), diluted to a final concentration of 1:100'000 in assay buffer (PBS 1×, 1 mM EDTA, 0.1% BSA, pH 7.4). 5 μl of the renin reaction (or standards in assay buffer) (see below) were added to the primary antibody solution and the plates were incubated overnight at 4° C. After the incubation the plates were washed 3 times with wash buffer and incubated with secondary antibody [anti-rabbit IgG, linked to horseradish peroxidase (Amersham Bioscience, NA 934V), diluted 1:2'000 in wash buffer] for 2 h at rt. The plates were washed 3 times with wash buffer and then incubated for 1 h at rt with substrate solution [1.89 mM ABTS (2,2′-azino-di-(3-ethyl-benzthiazolinsulfonate)] (Roche Diagnostics, 102 946) and 2.36 mM H2O2 [30%, (Fluka, 95300] in substrate buffer (0.1M sodium acetate, 0.05M sodium dihydrogen phosphate, pH 4.2). The OD of the plate was read at 405 nm in a microplate reader (FLUOStar Optima from BMG). The production of AngI during the renin reaction was quantified by comparing the OD of the sample with the OD of a standard curve of AngI(1-10), measured in parallel.
2. Primary Renin Inhibition Assay: IC50 in Buffer, 384 Well MTP
The renin assay was adapted from an assay described before (Fischli W. et al., Hypertension, 1991, 18:22-31) and consists of two steps: in the first step, recombinant human renin is incubated with its substrate (commercial human tetradecapeptide renin substrate) to create the product Angiotensin I (AngI). In the second step, the accumulated AngI is measured by an immunological assay (enzyme immuno assay, EIA). The detailed description of this assay is found below. The EIA is very sensitive and well suited for renin activity measurements in buffer or in plasma. Due to the low concentration of renin used in this assay (2 fmol per assay tube or 10 pM) it is possible to measure inhibitor affinities in this primary assay down to low pM concentration.
Recombinant human renin (3 pg/μl) in assay buffer (PBS 1×, 1 mM EDTA, 0.1% BSA, pH 7.4), human tetradecapeptide (1-14) substrate (Bachem, M-1120) [5 μM in 10 mM HCl], hydroxyquinoline sulfate (Fluka, 55100) [30 mM in H2O] and assay buffer were premixed at 4° C. at a ratio of 100:30:10:145. 47.5 μl per well of this premix was transferred into polypropylene plates (MTP384, Nunc). […]

Take `COCCCc1ccc(Cl)c(CN(C(=O)C2=C(c3ccc(CCOc4c(Cl)cc(C)cc4Cl)cc3)C[C@@H]3CNC[C@H]2N3)C2CC2)c1` (racemic) [Example 1, (rac.)-(1R*,5S*)-7-{4-[2-(2,6-Dichloro-4-methyl-phenoxy)-ethyl]-phenyl}-3,9-diaza-bicyclo[3.3.1]non-6-ene-6-carboxylic acid [2-chloro-5-(3-methoxy-propyl)-benzyl]-cyclopropyl-amide]: the IC50 was found to be 200 pM.

On to `COCCCc1ccc(Cl)c(CN(C(=O)C2=C(c3ccc(OCCOc4c(Cl)cc(C)cc4Cl)cc3)C[C@@H]3CNC[C@H]2N3)C2CC2)c1` [Example 4, (1R,5S)-7-{4-[2-(2,6-Dichloro-4-methyl-phenoxy)-ethoxy]-phenyl}-3,9-diaza-bicyclo[3.3.1]non-6-ene-6-carboxylic acid [2-chloro-5-(3-methoxy-propyl)-benzyl]-cyclopropyl-amide], for which the IC50 came to 200 pM.

Consider `COCCCc1ccc(Cl)c(CN(C(=O)C2=C(c3ccc(OCCOc4c(Cl)cc(C)cc4Cl)cc3)C[C@@H]3CN(C(=N)N)C[C@H]2N3)C2CC2)c1` [Example 11, (1R,5S)-3-Carbamimidoyl-7-{4-[2-(2,6-dichloro-4-methyl-phenoxy)-ethoxy]-phenyl}-3,9-diaza-bicyclo[3.3.1]non-6-ene-6-carboxylic acid cyclopropyl-[2-chloro-5-(3-methoxy-propyl)-benzyl]-amide Hydrochloride Salt], for which the IC50 was 300 pM.

Turning to `COCCCc1ccc(Cl)c(CN(C(=O)C2=C(c3ccc(OCCOc4c(Cl)cc(C)cc4Cl)cc3)C[C@@H]3CN(C(=O)NC4CC4)C[C@H]2N3)C2CC2)c1` [Example 13, (1R,5S)-7-{4-[2-(2,6-Dichloro-4-methyl-phenoxy)-ethoxy]-phenyl}-3,9-diaza-bicyclo[3.3.1]non-6-ene-3,6-dicarboxylic acid 3-cyclopropylamide 6-{cyclopropyl-[2-chloro-5-(3-methoxy-propyl)-benzyl]-amide}], the IC50 came out at 800 pM.

Turning to `COCCCc1ccc(Cl)c(CN(C(=O)C2=C(c3ccc(OCCOc4c(Cl)cc(C)cc4Cl)nc3)CCNC2)C2CC2)c1` [Example 18, 6-[2-(2,6-Dichloro-4-methyl-phenoxy)-ethoxy]-1′,2′,5′,6′-tetrahydro-[3,4′]bipyridinyl-3′-carboxylic acid [2-chloro-5-(3-methoxy-propyl)-benzyl]-cyclopropyl-amide], the IC50 stood at 500 pM.

Take `COCCc1ccc(Cl)c(CN(C(=O)[C@@H]2[C@@H](c3ccc(OCCOc4c(Cl)cc(C)cc4Cl)cc3)C[C@@H]3CC[C@H]2N3)C2CC2)c1` [Example 26, (1R,2R,3S,5S)-3-{4-[2-(2,6-Dichloro-4-methyl-phenoxy)-ethoxy]-phenyl}-8-aza-bicyclo[3.2.1]octane-2-carboxylic acid [2-chloro-5-(2-methoxy-ethyl)-benzyl]-cyclopropyl-amide]: the IC50 was found to be 140 pM.

As for `COCCCc1cc(CN(C(=O)C2=C(c3ccc(OCc4cc(-c5c(F)ccc(F)c5Cl)no4)cc3)CCNC2)C2CC2)c(Cl)cn1` [Example 34, 4-{4-[3-(2-Chloro-3,6-difluoro-phenyl)-isoxazol-5-ylmethoxy]-phenyl}-1,2,5,6-tetrahydro-pyridine-3-carboxylic acid [5-chloro-2-(3-methoxy-propyl)-pyridin-4-ylmethyl]-cyclopropyl-amide], the IC50 is 100 pM.

For the molecule `COCCCc1cc(CN(C(=O)C2=C(c3ccc(OCCOc4c(Cl)cc(C)cc4Cl)nc3)C[C@@H]3CNC[C@H]2N3)C2CC2)c(Cl)cn1` [Example 42, (1R,5S)-7-{6-[2-(2,6-Dichloro-4-methyl-phenoxy)-ethoxy]-pyridin-3-yl}-3,9-diaza-bicyclo[3.3.1]non-6-ene-6-carboxylic acid [5-chloro-2-(3-methoxy-propyl)-pyridin-4-ylmethyl]-cyclopropyl-amide], the IC50 amounted to 260 pM.

As to `COCCCc1ccc(Cl)c(CN(C(=O)C2=C(c3ccc(OCc4cc(-c5c(F)ccc(F)c5Cl)no4)cc3)C[C@@H]3CN(C(C)=O)C[C@H]2N3)C2CC2)c1` [Example 50, (1R,5S)-3-Acetyl-7-{4-[3-(2-chloro-3,6-difluoro-phenyl)-isoxazol-5-ylmethoxy]-phenyl}-3,9-diaza-bicyclo[3.3.1]non-6-ene-6-carboxylic acid [2-chloro-5-(3-methoxy-propyl)benzyl]-cyclopropyl-amide], the IC50 amounted to 240 pM.

In the case of `COCCc1ccc(Cl)c(CN(C(=O)[C@@H]2[C@@H](c3ccc(OCc4cc(-c5c(F)ccc(F)c5Cl)no4)cc3)C[C@@H]3CC[C@H]2N3)C2CC2)c1` [Example 60, (1R,2R,3S,5S)-3-{4-[3-(2-Chloro-3,6-difluoro-phenyl)isoxazol-5-ylmethoxy]-phenyl}-8-aza-bicyclo[3.2.1]octane-2-carboxylic acid [2-chloro-5-(2-methoxy-ethyl)benzyl]-cyclopropyl-amide], the IC50 worked out at 260 pM.

On to `Cc1cc(Cl)c(O[C@@H]2CCN(c3ccc([C@H]4CCNC[C@@H]4C(=O)N(Cc4cc(CNC(=O)CC(F)(F)F)ccc4Cl)C4CC4)cn3)C2)c(Cl)c1` [Example 67, (3′R,4′S)-6-[(R)-3-(2,6-Dichloro-4-methyl-phenoxy)-pyrrolidin-1-yl]-1′,2′,3′,4′,5′,6′-hexahydro-[3,4′]bipyridinyl-3′-carboxylic acid {2-chloro-5-[(3,3,3-trifluoro-propionylamino)-methyl]-benzyl}-cyclopropyl-amide], for which the IC50 was 630 pM.

As to `O=C([C@H]1CNCC[C@@H]1c1ccc(OCc2cc(-c3c(F)ccc(F)c3Cl)no2)cc1)N(Cc1cc(CNCC(F)F)ccc1Cl)C1CC1` [Example 77, (3R,4S)-4-{4-[3-(2-Chloro-3,6-difluoro-phenyl)isoxazol-5-ylmethoxy]-phenyl}-piperidine-3-carboxylic acid {2-chloro-5-[(2,2-difluoro-ethylamino)-methyl]-benzyl}-cyclopropyl-amide], the 50% inhibitory concentration (IC50) stood at 220 pM.

Consider `O=C(NCc1ccc(Cl)c(CN(C(=O)[C@H]2CNCC[C@@H]2c2ccc(OCc3cc(-c4c(F)ccc(F)c4Cl)no3)cc2)C2CC2)c1)C1CC1` [Example 83, (3R,4S)-4-{4-[3-(2-Chloro-3,6-difluoro-phenyl)-isoxazol-5-ylmethoxy]-phenyl}-piperidine-3-carboxylic acid {2-chloro-5-[(cyclopropanecarbonyl-amino)-methyl]-benzyl}-cyclopropyl-amide], for which the IC50 is 180 pM.

For the origin of these results see US7968720B2, “Secondary amines as renin inhibitors” (Actelion Pharmaceuticals Ltd., priority 2006, dated 2011).
